From patent publication US7666843B2, “Methods and compositions for treatment of neurological disorder” (Children's Medical Center Corporation, priority 2002, dated 2010)
Entries after “also recorded” stand apart in the source; their conditions may differ.

Assays:
[1] = test system: goldfish retinal ganglion cells; assay: Goldfish retinal ganglion cell culture, axon outgrowth bioassay; type: cell-based; conditions: goldfish RGCs; for effect on axon growth induced by inosine: 2-DG 1 mM; for axon outgrowth in response to glucose/mannose analogs: analog alone (L-enantiomers 100 μM, D-glucosamine 25 μM, 2-deoxy-D-glucose 1 mM), FIG. 8a; for effect on glucose-induced axon outgrowth: glucose 10 μM (50 μM with late fraction), dBcAMP 1 mM, 3-O-MG 100:1, 2-DG 1 mM; for effect on axon growth induced by VE<3: FIG. 2; for axon outgrowth in response to monosaccharides: sugar alone, 50 or 100 μM, D-configuration, FIG. 7a; for axon outgrowth, extracellular 6-phosphate: FIG. 8f
Method: Goldfish retinal ganglion cells are prepared as described in PCT application serial no. PCT/US98/03001, the contents of which are incorporated herein by reference, and contacted with a hexose derivative such as mannose. The ability of the hexose derivative to stimulate axonal outgrowth from the goldfish retinal ganglion cells is monitored as described in PCT application serial no. PCT/US98/03001.
Goldfish retinal ganglion cell cultures. Mammalian AF-1 was initially characterized in bioassays using dissociated goldfish retinal ganglion cells (RGCs). In brief, Comet variety goldfish (Mt. Parnell Fisheries, PA) were dark-adapted, cooled to 4° C., and killed by cervical transection. Retinas were dissected and dissociated by incubation in papain followed by a series of trituration steps that result in an RGC-enriched cell suspension (Schwartz & Agronoff,; Schwalb et al., 1995). Approximately 500 RGCs per well were plated together with the experimental samples to be tested in defined, serum-free media containing Leibovitz' L15 media (Gibco BRL) plus N1 and N2 supplements (Bottenstein, Saito), antioxidants, and bovine serum albumin as described in detail elsewhere (Schwalb et al., 1995). In each experiment, 4 wells of each sample were distributed in 24-well plates in a blinded fashion so that the person evaluating axon outgrowth was unaware of the type of sample present in each well. Experiments included a positive control (previously validated goldfish AF-1 or inosine) and a negative control (defined media alone), likewise distributed on the plate in quadruplicate in a blinded fashion. After 6 days in culture at 21° C., axon outgrowth, operationally defined as the percent of RGCs that extended an axon≧5 cell diameters in length, was evaluated in approximately 150 consecutively encountered RGCs per well. […] Data are presented as normalized means ± SEM. All experiments were repeated at least 3 times.

[2] = test system: rat retinal ganglion cells; assay: Rat retinal ganglion cell culture, axon outgrowth; type: cell-based; conditions: rat RGCs; for axon outgrowth in the presence of forskolin: with forskolin, compared to forskolin alone, glucose up to 5 mM, mannose-6-phosphate up to 10 mM, FIG. 9a, 9c
Description: Rat retinal ganglion cell cultures. Retinal ganglion cells were identified by retrograde labeling with Fluorogold (FG: Fluorochrome, Inc.). […] After allowing 7 days for FG to be retrogradely transported up the optic nerve, rats were killed, eyes were removed, and the retinas dissected. Retinas were dissociated with papain treatment followed by trituration. Mixed cultures containing 100-150 FG-labeled RGCs per well were maintained in 24 well plates in a defined, serum-free media (Minimal Essential Media containing NaHCO3,) at 37° C. at 5% CO2 for 3 days.

[3] = forskolin 10 μM, Rp-cAMPs 100 μM, MH 10 mM
[4] = 6-TG 20 μM, NBTI 20 μM, forskolin 10 μM, Sp-cAMPs 150 μM, Rp-cAMPs 100 μM, H89 5 μM, FIG. 2, 4

SMILES: O=CC[C@@H](O)[C@H](O)[C@H](O)CO [2-deoxy-D-glucose]
- effect on axon growth induced by inosine ([1]; 6-TG 20 μM, NBTI 20 μM, listed as 2-DG): blocked the effects of both glucose and inosine; also recorded: also blocks the effect of inosine
- axon outgrowth in response to glucose/mannose analogs [1]: ineffective; also recorded: No activity
- effect on glucose-induced axon outgrowth ([1]; forskolin 10 μM, Rp-cAMPs 100 μM, MH 10 mM, listed as 2-DG): blocked the effects of both glucose and inosine; also recorded: does block the effect of glucose

SMILES: CO[C@@H]([C@H](O)[C@H](O)CO)[C@@H](O)C=O [3-O-methyl-D-glucose]
- axon outgrowth in response to glucose/mannose analogs [1]: ineffective; also recorded: No activity
- effect on glucose-induced axon outgrowth [1, 3]: fails to block the effect of glucose

SMILES: Nc1nc2nc[nH]c2c(=S)[nH]1 [6-TG, 6-thioguanine]
- effect on growth induced by VE<3 plus forskolin or Sp-cAMPs ([2]; 6-TG, FIG. 3a): reduced growth; also recorded: strongly inhibited
- effect on axon growth induced by inosine ([1]; 6-TG 20 μM, NBTI 20 μM): only partially blocked; also recorded: only partially inhibited
- effect on axon growth induced by AF-1 [1, 4]: below baseline levels
- effect on axon growth induced by VE<3 ([1]; 6-TG 20 μM, NBTI 20 μM): below baseline levels; also recorded: inhibited completely

SMILES: O=C[C@H](O)[C@H](O)[C@H](O)[C@H](O)CO [D-allose]
- axon outgrowth in response to monosaccharides [1]: failed to stimulate outgrowth

SMILES: O=C[C@@H](O)[C@H](O)[C@H](O)[C@H](O)CO [D-altrose]
- axon outgrowth in response to monosaccharides [1]: failed to stimulate outgrowth

SMILES: O=C[C@H](O)[C@@H](O)[C@@H](O)[C@H](O)CO [D-galactose]
- axon outgrowth in response to monosaccharides [1]: failed to stimulate outgrowth

SMILES: N[C@H]1C(O)O[C@H](CO)[C@@H](O)[C@@H]1O (stereo partly drawn) [D-glucosamine]
- axon outgrowth in the presence of forskolin [2]: did not respond
- axon outgrowth in response to glucose/mannose analogs [1]: strongly active

SMILES: O=C[C@H](O)[C@@H](O)[C@H](O)[C@H](O)COP(=O)(O)O [D-glucose-6-phosphate]
- axon outgrowth, extracellular 6-phosphate ([1]; 100 μM): modest amount of outgrowth
- axon outgrowth, extracellular 6-phosphate ([1]; 1 mM): appreciable growth
- axon outgrowth in response to glucose/mannose analogs [1]: relatively modest but statistically significant amount of outgrowth
- axon outgrowth in response to glucose/mannose analogs ([1]; listed as D-glc-6-P): small but statistically significant level of outgrowth

SMILES: O=C[C@H](O)[C@H](O)[C@@H](O)[C@H](O)CO [D-gulose]
- axon outgrowth in the presence of forskolin [2]: some activity
- axon outgrowth in response to monosaccharides [1]: failed to stimulate outgrowth

SMILES: N[C@@H]1C(O)O[C@H](CO)[C@@H](O)[C@@H]1O (stereo partly drawn) [D-mannosamine]
- axon outgrowth in response to glucose/mannose analogs [1]: ineffective

SMILES: O=C[C@@H](O)[C@@H](O)[C@H](O)[C@H](O)COP(=O)(O)O [D-mannose-6-phosphate]
- axon outgrowth in the presence of forskolin [2]: did not respond
- axon outgrowth, extracellular 6-phosphate ([1]; 100 μM): modest amount of outgrowth
- axon outgrowth, extracellular 6-phosphate ([1]; 1 mM): appreciable growth
- axon outgrowth in response to glucose/mannose analogs [1]: relatively modest but statistically significant amount of outgrowth
- axon outgrowth in response to glucose/mannose analogs ([1]; listed as D-man-6-P): small but statistically significant level of outgrowth

SMILES: O=C[C@@H](O)[C@@H](O)[C@@H](O)[C@H](O)CO [D-talose]
- axon outgrowth in response to monosaccharides [1]: failed to stimulate outgrowth

SMILES: O=S(=O)(NCCNC/C=C/c1ccc(Br)cc1)c1cccc2cnccc12 [H89]
- effect on axon growth induced by AF-1 [1, 4]: not diminished
- effect on axon growth induced by AF-1 ([1]; 6-TG 20 μM, NBTI 20 μM, forskolin 10 μM, Sp-cAMPs 150 μM, Rp-cAMPs 100 μM, H89 5 μM, FIG. 2, 4, listed as H-89): did not reduce AF-1 induced growth
- effect on axon growth induced by AF-1 ([1]; H89 20 μM, FIG. 4): diminished the effect of AF-1; also recorded: higher concentrations of H89 (20 μM) did

SMILES: CCCCCCOC(=O)[C@]1(O)C[C@@H]2O[C@@]1(C)n1c3ccccc3c3c4c(c5c6ccccc6n2c5c31)C(=O)NC4 [KT5720]
- effect on mannose-induced axon outgrowth ([1]; KT5720 1 μM, MH 10 mM, dBcAMP, late fraction with 50 μM mannose): did not diminish the effect of mannose; also recorded: little effect on mannose-induced growth
- effect on mannose-induced axon outgrowth ([1]; KT5720 10 μM, FIG. 7f): only a slight effect

SMILES: O=C[C@H](O)[C@H](O)[C@@H](O)[C@@H](O)CO [L-mannose]
- axon outgrowth in the presence of forskolin [2]: inactivity
- axon outgrowth in response to glucose/mannose analogs [1]: completely inactive; also recorded: inactivity

SMILES: O=[N+]([O-])c1ccc(CSc2ncnc3c2ncn3[C@@H]2O[C@H](CO)[C@@H](O)[C@H]2O)cc1 [NBTI, 4-(nitrobenzyl-6-thioinosine)]
- effect on axon growth induced by inosine ([1]; 6-TG 20 μM, NBTI 20 μM): effectively blocked; also recorded: blocked completely
- effect on axon growth induced by AF-1 [1, 4]: very little effect
- effect on axon growth induced by VE<3 ([1]; 6-TG 20 μM, NBTI 20 μM): very little effect; also recorded: not affected

SMILES: Nc1ncnc2c1ncn2[C@@H]1O[C@@H]2CO[P@@](O)(=S)O[C@H]2[C@H]1O [Rp-cAMPs]
- effect on axon growth induced by AF-1 [1, 4]: not diminished
- effect on axon growth induced by AF-1 ([1]; 6-TG 20 μM, NBTI 20 μM, forskolin 10 μM, Sp-cAMPs 150 μM, Rp-cAMPs 100 μM, H89 5 μM, FIG. 2, 4, listed as Rp-cAMP-s): did not reduce AF-1 induced growth
- block of glucose-induced outgrowth ([1]; Rp-cAMPs 1 mM): 48%
- effect on glucose-induced axon outgrowth [1, 3]: no effect on glucose-induced outgrowth

SMILES: CC(=O)N[C@H]1C(O)O[C@H](CO)[C@@H](O)[C@@H]1O (some centres unmarked) [acetylglucosamine, N-acetyl-glucosamine]
- axon outgrowth in response to glucose/mannose analogs [1]: ineffective
- axon outgrowth in response to glucose/mannose analogs ([1]; listed as N-acetyl-glucosamine): No activity

SMILES: O=C(CO)[C@@H](O)[C@H](O)[C@H](O)CO [fructose]
- axon outgrowth in response to monosaccharides [1]: failed to stimulate outgrowth

SMILES: C[C@H](O)[C@@H](O)[C@@H](O)[C@H](O)C=O [fucose, L-fucose]
- axon outgrowth in response to glucose/mannose analogs [1]: ineffective
- axon outgrowth in response to glucose/mannose analogs ([1]; listed as L-fucose): No activity

SMILES: COC(=O)C(C)=O [methyl pyruvate]
- effect on outgrowth of adding energy substrate to the media ([1]; 5 mM): had no effect

SMILES: CO[C@H]1O[C@H](CO)[C@@H](O)[C@H](O)[C@H]1O [methyl-α-D-glucopyranoside]
- axon outgrowth in response to glucose/mannose analogs [1]: ineffective
- axon outgrowth in response to glucose/mannose analogs ([1]; listed as methyl-α-glucose pyranose): No activity

SMILES: CO[C@@H]1O[C@H](CO)[C@@H](O)[C@H](O)[C@H]1O [methyl-β-D-glucopyranoside]
- axon outgrowth in response to glucose/mannose analogs [1]: ineffective
- axon outgrowth in response to glucose/mannose analogs ([1]; listed as methyl-β-glucose pyranose): No activity

SMILES: O[C@H]1[C@H](O)[C@@H](O)[C@H](O)[C@@H](O)[C@H]1O [myo-inositol]
- axon outgrowth in response to monosaccharides [1]: failed to stimulate outgrowth

SMILES: O=C(CO)[C@H](O)[C@@H](O)[C@H](O)CO [sorbose]
- axon outgrowth in response to monosaccharides [1]: failed to stimulate outgrowth
